Structures can show the parent of a compound that is named as a salt.
Key:
OGA = biological target: T1, OGA (Homo sapiens, UniProt O60502); assay: OGA cellular assay (ICC detection of O-GlcNAcylated proteins in HEK293 cells inducible for P301L mutant human Tau); type: cell-based
T1 construct: endogenous in cells; host or cells: HEK293 cells inducible for P301L mutant human Tau (2N4R)
T1 sequence (O60502 1-916): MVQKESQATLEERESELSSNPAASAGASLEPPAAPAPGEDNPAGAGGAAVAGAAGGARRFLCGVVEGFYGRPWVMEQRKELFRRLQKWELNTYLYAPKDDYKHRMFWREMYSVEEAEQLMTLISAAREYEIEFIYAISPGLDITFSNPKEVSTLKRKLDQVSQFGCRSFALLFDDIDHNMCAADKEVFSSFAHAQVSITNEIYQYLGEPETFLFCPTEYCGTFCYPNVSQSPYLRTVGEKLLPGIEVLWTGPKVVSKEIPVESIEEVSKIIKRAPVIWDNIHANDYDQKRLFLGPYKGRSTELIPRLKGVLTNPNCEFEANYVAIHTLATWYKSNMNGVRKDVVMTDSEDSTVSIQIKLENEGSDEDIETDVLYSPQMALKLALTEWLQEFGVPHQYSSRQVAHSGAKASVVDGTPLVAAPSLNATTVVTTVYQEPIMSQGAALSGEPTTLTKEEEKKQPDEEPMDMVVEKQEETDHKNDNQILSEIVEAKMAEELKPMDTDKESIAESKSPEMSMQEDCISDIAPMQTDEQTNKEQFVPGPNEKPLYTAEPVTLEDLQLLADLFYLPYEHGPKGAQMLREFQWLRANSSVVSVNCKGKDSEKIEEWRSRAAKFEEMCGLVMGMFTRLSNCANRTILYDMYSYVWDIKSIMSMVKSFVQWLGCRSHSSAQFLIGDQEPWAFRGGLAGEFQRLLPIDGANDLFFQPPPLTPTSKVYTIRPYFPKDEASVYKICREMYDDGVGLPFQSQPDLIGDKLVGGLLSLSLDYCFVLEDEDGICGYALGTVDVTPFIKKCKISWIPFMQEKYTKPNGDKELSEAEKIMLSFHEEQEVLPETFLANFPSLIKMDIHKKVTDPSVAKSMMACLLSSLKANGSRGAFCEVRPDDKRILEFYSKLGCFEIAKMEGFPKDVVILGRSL
Method in brief: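 HEK293 cells inducible for P301L Tau, in low-glucose assay medium, treated 6 h with compound at 0.2% DMSO. O-GlcNAcylated proteins detected by CTD110.6 immunostaining, imaged at 488 nm with Hoechst nuclear counts for toxicity. IC50 from non-linear regression, 200 uM Thiamet G as maximum.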

[1] = biological target: T2, recombinant human Meningioma Expressed Antigen 5 (MGEA5), also referred to as O-GlcNAcase (OGA) (Homo sapiens, UniProt O60502); assay: OGA biochemical assay (inhibition of FM-GlcNAc hydrolysis, fluorescence)
T2 construct: Full length OGA enzyme was purchased at OnGene (cat #TP322411); purchased OnGene (so in the source)
T2 sequence (O60502 1-916): T1 sequence (O60502 1-916)
Method in brief: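 Full-length recombinant OGA (2 nM) pre-incubated with compound 60 min at room temperature, then FM-GlcNAc (100 µM final) added in citrate/phosphate buffer pH 7.2 with 0.005% Tween-20. After 6 h at room temperature, stopped with carbonate pH 11.0; fluorescein read at 485/538 nm; IC50 and Hill coefficient from curve fit.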

SMILES	melting point [°C]	Emax (OGA; HEK293, HEK293 cells inducible for P301L mutant human Tau, maximal effect, Thiamet G 200 uM as maximum) [%]	EC50 (OGA; HEK293 cells inducible for P301L mutant human Tau, 6 hours incubation, read-out: Cellular hOGA, pEC50 (converted)) [nM]	Enzymatic Emax (%) ([1]; maximal effect)	IC50 ([1]; read-out: Enzymatic hOGA, pIC50 (converted)) [nM]
Cc1cc(C[C@H]2CCCN(C(C)c3ccc4c(n3)OCC(=O)N4)C2)cc(C)n1 (single isomer, unassigned) [Product 61]	62.45	45	> 1000	102	39.8
Cc1cc(NCC2CCCN(C(C)c3ccc4c(n3)OCCO4)C2)cc(C)n1 (stereo not shown) (as salt: HCl) [Product 21]	193				
COc1cc(NCC2CCCN(C(C)c3ccc4c(c3)OCC4)C2)cc(C)n1 (stereo not shown) (as salt: HCl) [Product 30]	261.3				
